These compounds were tested on HIV (assay: HOS assay (HOS-Luc HIV-1 LTR-luciferase reporter antiviral assay)). Settings: Human immunodeficiency virus 1, 96 h; HOS-Luc cells (HOS-CD4.CCR5 with HIV-1 LTR-luciferase reporter), four-day incubation with virus, luciferase readout.
Assay type: cell-based
Experimental: HOS-Luc cells were created by introducing an HIV-1 LTR-luciferase reporter into HOS-CD4.CCR5 (NIH AIDS Research and Reference Reagents Program, cat. #3318). The cells were propagated in DMEM complete medium. Cells were split 1:20 by standard trypsinization when confluency reached 80% (roughly every 2 to 3 days).
Black-walled 96-well tissue culture plates were seeded with HOS-Luc at 6×10^3 cells per well in 50 μL DMEM containing 2% FBS and placed in a humidified incubator at 37° C., 5% CO2 overnight. The following day, test compounds were serially diluted in 4-fold increments at 2× the final concentration in DMEM+2% FBS+0.2% DMSO. Diluted compound (50 μL) was transferred to the HOS-Luc cells and the plates were placed in a humidified incubator at 37° C., 5% CO2 for 1 hr. An additional 60 μL of 2× compound was transferred to a clear-walled 96-well tissue culture plate and 60 μL of virus (diluted 1:50 in tissue culture media) was added to each well and thoroughly mixed. The virus input was previously determined by titrating the virus under assay conditions without compound and selecting a dilution that gives a response in the linear range of the curve and a signal to background of at least 30. The HIV/compound mixture (100 μL) was transferred to the black-walled plates containing 100 μL of cells/compound. The plates were placed in a humidified incubator at 37° C., 5% CO2 for four days. Following the four-day incubation, 150 μL of supernatant was removed and 50 μL of reconstituted Luclite (Promega) was added to each well. For cytotoxicity assessment, 50 μL of reconstituted CellTiter-GLo (Promega) was added to each well. Each plate was topsealed and read in a Topcount (Packard) luminometer at 1 s/well.
Raw data from the HOS-Luc assay were expressed as Relative Light Units (RLU) and normalized according to the following formula: (RLU at drug [ ]/RLU no drug)*100=% control
The potency of test compounds are reported as IC50 values derived from the four parameter Hill equation, defined as: y=Vmax*(1−(x^n/(K^n+x^n)))+Y2 Where:
y=normalized response data
Vmax=upper bound of response
Y2=lower bound or baseline of response

`Cc1nc2ccccc2n1[C@H]1C[C@H]2CC[C@@H](C1)N2CCC(CNS(=O)(=O)c1ccccc1)c1ccccc1` (stereo partly drawn) [Example 1, N-{4-[(1R,5S)-3-(2-methyl-1H-benzimidazol-1-yl)-8-azabicyclo[3.2.1]oct-8-yl]-2-phenylbutyl}] and `Cc1nc2ccncc2n1[C@H]1C[C@H]2CC[C@@H](C1)N2CCC(CNS(=O)(=O)c1ccccc1)c1ccccc1` (stereo partly drawn) [Example 11, N-{4-[(1R,5S)-3-(2-methyl-3H-imidazo[4,5-c]pyridin-3-yl)-8-azabicyclo[3.2.1]oct-8-yl]-2-phenylbutyl}benzenesulfonamide] fall in the same range of IC50: 10 to 100 nM for the first, 10 to 100 nM for the second.

`Cc1nc2ccccc2n1[C@H]1C[C@H]2CC[C@@H](C1)N2CCC(CN(C)S(=O)(=O)c1ccccc1)c1ccccc1` (stereo partly drawn) [Example 2, N-methyl-N-{4-[(1R,5S)-3-(2-methyl-1H-benzimidazol-1-yl)-8-azabicyclo[3.2.1]oct-8-yl]-2-phenylbutyl}benzenesulfonamide] and `Cc1nc2ccccc2n1[C@H]1C[C@H]2CC[C@@H](C1)N2CCC(C)(CN(C)S(=O)(=O)c1ccccc1)c1ccccc1` (stereo partly drawn) [Example 20, N-methyl-N-{2-methyl-4-[(1R,5S)-3-(2-methyl-1H-benzimidazol-1-yl)-8-azabicyclo[3.2.1]oct-8-yl]-2-phenylbutyl}benzenesulfonamide] cannot be ordered by IC50: less than 10 nM for the first, less than 10 nM for the second.

`Cc1nc2ccccc2n1[C@H]1C[C@H]2CC[C@@H](C1)N2CCC(CNS(=O)(=O)c1cccc(C#N)c1)c1ccccc1` (stereo partly drawn) [Example 3, 3-cyano-N-{4-[(1R,5S)-3-(2-methyl-1H-benzimidazol-1-yl)-8-azabicyclo[3.2.1]oct-8-yl]-2-phenylbutyl}benzenesulfonamide] and `Cc1nc2ccccc2n1[C@H]1C[C@H]2CC[C@@H](C1)N2CCC(CNS(=O)(=O)c1ccc(C#N)cc1)c1ccccc1` (stereo partly drawn) [Example 4, 4-cyano-N-{4-[(1R,5S)-3-(2-methyl-1H-benzimidazol-1-yl)-8-azabicyclo[3.2.1]oct-8-yl]-2-phenylbutyl}benzenesulfonamide] fall in the same range of IC50: 10 to 100 nM for the first, 10 to 100 nM for the second.

`Cc1nc2ccccc2n1[C@H]1C[C@H]2CC[C@@H](C1)N2CCC(CNS(C)(=O)=O)c1ccccc1` (stereo partly drawn) [Example 5, N-{4-[(1R,5S)-3-(2-methyl-1H-benzimidazol-1-yl)-8-azabicyclo[3.2.1]oct-8-yl]-2-phenylbutyl}methanesulfonamide] and `Cc1nc2ccccc2n1[C@H]1C[C@H]2CC[C@@H](C1)N2CCC(CNS(=O)(=O)CC(F)(F)F)c1ccccc1` (stereo partly drawn) [Example 10, 2,2,2-trifluoro-N-{4-[(1R,5S)-3-(2-methyl-1H-benzimidazol-1-yl)-8-azabicyclo[3.2.1]oct-8-yl]-2-phenylbutyl}ethanesulfonamide] fall in the same range of IC50: 10 to 100 nM for the first, 10 to 100 nM for the second.

`Cc1nc2ccccc2n1[C@H]1C[C@H]2CC[C@@H](C1)N2CCC(CNS(=O)(=O)c1cccc(C(N)=O)c1)c1ccccc1` (stereo partly drawn) [Example 6, 3-[({4-[(1R,5S)-3-(2-methyl-1H-benzimidazol-1-yl)-8-azabicyclo[3.2.1]oct-8-yl]-2-phenylbutyl}amino)sulfonyl]benzamide] and `Cc1nc2ccccc2n1C1C[C@H]2CC[C@@H](C1)N2CCC(CNS(=O)(=O)c1ccc(C(N)=O)cc1)c1ccccc1` (stereo partly drawn) [Example 8, 4-[({4-[(1R,5S)-3-(2-methyl-1H-benzimidazol-1-yl)-8-azabicyclo[3.2.1]oct-8-yl]-2-phenylbutyl}amino)sulfonyl]benzamide] fall in the same range of IC50: 10 to 100 nM for the first, 10 to 100 nM for the second.

`Cc1nc2ccccc2n1[C@H]1C[C@H]2CC[C@@H](C1)N2CCC(CNS(=O)(=O)c1ccc2[nH]c(=O)oc2c1)c1ccccc1` (stereo partly drawn) [Example 7] and `Cc1nc2ccccc2n1[C@H]1C[C@H]2CC[C@@H](C1)N2CCC(CNS(=O)(=O)NC1CCC1)c1ccccc1` (stereo partly drawn) [Example 14, N-cyclobutyl-N′-{4-[(1R,5S)-3-(2-methyl-1H-benzimidazol-1-yl)-8-azabicyclo[3.2.1]oct-8-yl]-2-phenylbutyl}sulfamide] fall in the same range of IC50: 10 to 100 nM for the first, 10 to 100 nM for the second.

`COP(=O)(NCC(CCN1[C@@H]2CC[C@H]1C[C@@H](n1c(C)nc3ccccc31)C2)c1ccccc1)OC` (stereo partly drawn) [Example 9, dimethyl{4-[(1R,5S)-3-(2-methyl-1H-benzimidazol-1-yl)-8-azabicyclo[3.2.1]oct-8-yl]-2-phenylbutyl}amidophosphate] and `Cc1nc2ccccc2n1[C@H]1C[C@H]2CC[C@@H](C1)N2CCC(CNS(=O)(=O)N1CCOCC1)c1ccccc1` (stereo partly drawn) [Example 12, N-{4-[(1R,5S)-3-(2-methyl-1H-benzimidazol-1-yl)-8-azabicyclo[3.2.1]oct-8-yl]-2-phenylbutyl}-4-mopholinesulfonamide] fall in the same range of IC50: 10 to 100 nM for the first, 10 to 100 nM for the second.

First: CC(=O)N1CCc2nc(C)n([C@H]3C[C@H]4CC[C@@H](C3)N4CCC(CNS(=O)(=O)c3ccccc3)c3ccccc3)c2C1 (stereo partly drawn) [Example 13, N-{4-[(1R,5S)-3-(5-acetyl-2-methyl-4,5,6,7-tetrahydro-3H-imidazo[4,5-c]pyridin-3-yl)-8-azabicyclo[3.2.1]oct-8-yl]-2-phenylbutyl}benzenesulfonamide]
Second: Cc1nnc(C(C)C)n1[C@H]1C[C@H]2CC[C@@H](C1)N2CCC(CNS(=O)(=O)c1ccccc1)c1ccccc1 (stereo partly drawn) [Example 17, N-(4-{(1R,5S)-3-[3-methyl-5-(1-methylethyl)-4H-1,2,4-triazol-4-yl]-8-azabicyclo[3.2.1]oct-8-yl}-2-phenylbutyl)benzenesulfonamide]
The IC50 of the first is lower: less than 10 nM for the first, 100 to 1000 nM for the second.

Compared with `Cc1nc2ccccc2n1[C@H]1C[C@H]2CC[C@@H](C1)N2CCC(CNS(=O)(=O)NC1CCC(F)(F)CC1)c1ccccc1` (stereo partly drawn) [Example 15, N-(4,4-difluorocyclohexyl)-N′-{4-[(1R,5S)-3-(2-methyl-1H-benzimidazol-1-yl)-8-azabicyclo[3.2.1]oct-8-yl]-2-phenylbutyl}sulfamide], `Cc1nc2ccccc2n1[C@H]1C[C@H]2CC[C@@H](C1)N2CCC(C)(CNC(=O)C1CCC(F)(F)CC1)c1ccccc1` (stereo partly drawn) [Example 21, 4,4-difluoro-N-{2-methyl-4-[(1R,5S)-3-(2-methyl-1H-benzimidazol-1-yl)-8-azabicyclo[3.2.1]oct-8-yl]-2-phenylbutyl}cyclohexanecarboxamide] is higher in IC50: 10 to 100 nM for the first, 100 to 1000 nM for the second. The first is the more potent here.

`Cc1nnc(C(C)C)n1[C@H]1C[C@H]2CC[C@@H](C1)N2CCC(CNC(=O)C1CCC(F)(F)CC1)c1ccccc1` (stereo partly drawn) [Example 16, 4,4-difluoro-N-(4-{(1R,5S)-3-[3-methyl-5-(1-methylethyl)-4H-1,2,4-triazol-4-yl]-8-azabicyclo[3.2.1]oct-8-yl}-2-phenylbutyl)cyclohexanecarboxamide] and `Cc1nnc(C(C)C)n1[C@H]1C[C@H]2CC[C@@H](C1)N2CCC(CNC(=O)C1CC(F)(F)C1)c1ccccc1` (stereo partly drawn) [Example 18, 3,3-difluoro-N-(4-{(1R,5S)-3-[3-methyl-5-(1-methylethyl)-4H-1,2,4-triazol-4-yl]-8-azabicyclo[3.2.1]oct-8-yl}-2-phenylbutyl)cyclobutanecarboxamide] fall in the same range of IC50: 100 to 1000 nM for the first, 100 to 1000 nM for the second.

`Cc1nc2ccccc2n1[C@H]1C[C@H]2CC[C@@H](C1)N2CCC(C)(CNS(=O)(=O)c1ccccc1)c1ccccc1` (stereo partly drawn) [Example 19, N-{2-methyl-4-[(1R,5S)-3-(2-methyl-1H-benzimidazol-1-yl)-8-azabicyclo[3.2.1]oct-8-yl]-2-phenylbutyl}benzenesulfonamide] and `Cc1nnc(C(C)C)n1[C@@H]1C[C@H]2CC[C@@H](C1)N2CCC(C)(CNS(=O)(=O)c1ccccc1)c1ccccc1` (stereo partly drawn) [Example 24, N-(2-methyl-4-{(1R,5S)-3-[3-methyl-5-(1-methylethyl)-4H-1,2,4-triazol-4-yl]-8-azabicyclo[3.2.1]oct-8-yl}-2-phenylbutyl)benzenesulfonamide] fall in the same range of IC50: 100 to 1000 nM for the first, 100 to 1000 nM for the second.

`Cc1nc2ccccc2n1[C@H]1C[C@H]2CC[C@@H](C1)N2CCC(C)(CN(C)C(=O)C1CCC(F)(F)CC1)c1ccccc1` (stereo partly drawn) [Example 22, 4,4-difluoro-N-methyl-N-{2-methyl-4-[(1R,5S)-3-(2-methyl-1H-benzimidazol-1-yl)-8-azabicyclo[3.2.1]oct-8-yl]-2-phenylbutyl}cyclohexanecarboxamide] and `Cc1nnc(C(C)C)n1[C@@H]1C[C@H]2CC[C@@H](C1)N2CCC(C)(CNC(=O)C1CCC(F)(F)CC1)c1ccccc1` (stereo partly drawn) [Example 23, 4,4-difluoro-N-(2-methyl-4-{(1R,5S)-3-[3-methyl-5-(1-methylethyl)-4H-1,2,4-triazol-4-yl]-8-azabicyclo[3.2.1]oct-8-yl}-2-phenylbutyl)cyclohexanecarboxamide] fall in the same range of IC50: 100 to 1000 nM for the first, 100 to 1000 nM for the second.

From patent US8592395B2, “Therapeutic compounds” (GlaxoSmithKline LLC, priority 2009, dated 2013)
